The results in this text go back to ChEMBL document CHEMBL1201862, “PubChem BioAssay data set” (2004).

Molecules are shown by their SMILES.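 Each compound was tested at five concentrations against cells in 96-well plates for 48 hours. GI50 marks 50% less growth.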 Active and inactive are the calls of the source. No stated cut-off is given here; in the data, active = GI50 up to about 1.1 µM and inactive = higher. Where only a bound is given, the exact number is not on record here.

Among the test systems are MDA-N; COLO 205; U-251; MDA-MB-231; MDA-MB-435; M14; 786-0; UO-31; SF-268; OVCAR-4; HL-60; HCC 2998; HCT-116; SK-MEL-28; SF-295; SK-MEL-2; PC-3; IGROV-1; UACC-257; SR.
What all share (assay): inhibition of tumour cell growth, NCI panel, 48 h

Take `O=C(Nc1ccccc1)c1cc(S(=O)(=O)Nc2nc3cccnc3[nH]2)c(SSc2cc(Cl)c(C(=O)Nc3ccccc3)cc2S(=O)(=O)Nc2nc3cccnc3[nH]2)cc1Cl`: the GI50 in the assay with MDA-N, in the assay with COLO 205, with U-251, in the assay with MDA-MB-231, in the assay with MDA-MB-435 and in the assay with M14 was > 100 µM (inactive) each time. In addition, the GI50 in the assay on 786-0, with UO-31, in the assay with SF-268, with OVCAR-4, in the assay on HL-60 and in the assay on HCC 2998 was > 100 µM (inactive) throughout. Further, the GI50 in the assay with HCT-116, in the assay with SK-MEL-28, in the assay on SF-295, in the assay with SK-MEL-2, with PC-3 and in the assay on IGROV-1 was > 100 µM (inactive) in each case. For the same molecule, the GI50 with UACC-257 was > 100 µM (inactive).
For the molecule `Cc1nc(=O)[nH]c2c1C(=O)N(C(C)C)C(NC(C)C)S2` (configuration not stated), the GI50 in the assay with MDA-N, in the assay with COLO 205, with U-251, with MDA-MB-231, with MDA-MB-435 and in the assay on M14 was > 100 µM (inactive) throughout. In addition, the GI50 is > 100 µM (inactive) in the assay on 786-0; > 100 µM (inactive) with UO-31; 57.9 µM (inactive) with OVCAR-4; > 100 µM (inactive) in the assay with HL-60; > 100 µM (inactive) in the assay with HCC 2998; > 100 µM (inactive) with HCT-116. In addition, the GI50 in the assay on SK-MEL-28 was > 100 µM (inactive); with SF-295, > 100 µM (inactive); in the assay with SK-MEL-2, > 100 µM (inactive); in the assay with PC-3 it was 41.2 µM (inactive); with IGROV-1 it was > 100 µM (inactive); in the assay on UACC-257 it was > 100 µM (inactive).
`O=c1[nH]/c(=C/c2ccc3c(c2)OCO3)c(=O)[nH]/c1=C/c1ccc2c(c1)OCO2`: the GI50 in the assay with MDA-N, in the assay with COLO 205, in the assay on U-251, in the assay on MDA-MB-231, in the assay on MDA-MB-435 and in the assay with M14 was > 10 µM (inactive) in each case. Further, the GI50 with 786-0, in the assay on UO-31, in the assay with SF-268, in the assay with OVCAR-4, in the assay with HCC 2998 and with HCT-116 was > 10 µM (inactive) in each case. In addition, the GI50 in the assay on SK-MEL-28 was 8.89 µM (inactive); in the assay on SF-295, > 10 µM (inactive); with SK-MEL-2, > 10 µM (inactive); with PC-3 it was > 10 µM (inactive); in the assay with IGROV-1, > 10 µM (inactive); with UACC-257 it was > 10 µM (inactive).
As to `Cc1ccc(S(=O)(=O)O)cc1.c1cc2c(c(NC3=NCCN3)c1)CCCC2`, the GI50 in the assay on MDA-N, with COLO 205, with U-251, in the assay on MDA-MB-231, in the assay on MDA-MB-435 and with M14 was > 100 µM (inactive) each time. Moreover, the GI50 with SR, with 786-0, in the assay with SF-268, in the assay on OVCAR-4, in the assay on HL-60 and in the assay on HCT-116 was > 100 µM (inactive) in each case. Besides, the GI50 in the assay with SK-MEL-28, with SF-295, in the assay with SK-MEL-2, in the assay with PC-3, with IGROV-1 and with UACC-257 was > 100 µM (inactive) each time.
For the molecule `O=c1cc(N2CCCC2)[nH]c(=O)n1-c1cccc(Cl)c1`, the GI50 in the assay with MDA-N, in the assay on COLO 205, in the assay with U-251, in the assay on MDA-MB-231, in the assay with MDA-MB-435 and in the assay on M14 was > 100 µM (inactive) each time. In addition, the GI50 in the assay on 786-0, with SF-268, in the assay with OVCAR-4, in the assay with HL-60, in the assay with HCC 2998 and with HCT-116 was > 100 µM (inactive) each time. The GI50 in the assay on SF-295, in the assay on SK-MEL-2, with PC-3, with IGROV-1 and with UACC-257 was > 100 µM (inactive) each time.
In the case of `O=C(O)c1ccccc1C(=O)Nn1cnnc1`, the GI50 in the assay with MDA-N, in the assay with COLO 205, with U-251, in the assay on MDA-MB-231, in the assay with MDA-MB-435 and with M14 was > 100 µM (inactive) throughout. Besides, the GI50 in the assay on 786-0, with UO-31, with SF-268, in the assay on OVCAR-4, in the assay with HCC 2998 and in the assay on HCT-116 was > 100 µM (inactive) in each case. The GI50 with SK-MEL-28, in the assay with SF-295, in the assay with SK-MEL-2, in the assay with PC-3, in the assay on IGROV-1 and with UACC-257 was > 100 µM (inactive) in each case.
As for `CCOC(=O)Cn1c2ccc(Br)cc2c2nc3ccccc3nc21`, the GI50 in the assay with MDA-N, with COLO 205, in the assay on U-251, in the assay on MDA-MB-231, with MDA-MB-435 and in the assay on M14 was > 100 µM (inactive) each time. Further, the GI50 in the assay on SR was 88.7 µM (inactive); with 786-0, > 100 µM (inactive); in the assay with UO-31, > 100 µM (inactive); in the assay with SF-268 it was > 100 µM (inactive); in the assay with HCT-116, > 100 µM (inactive); in the assay on SK-MEL-28 it was > 100 µM (inactive). The GI50 with SF-295 was > 100 µM (inactive); in the assay with SK-MEL-2, > 100 µM (inactive); in the assay on PC-3 it was > 100 µM (inactive); in the assay with IGROV-1 it was 55.7 µM (inactive); in the assay with UACC-257 it was > 100 µM (inactive).
`CC(NC(=O)C(C)C(=O)NCc1ccc(C(F)(F)F)cc1)C(N)=O` (configuration not stated): the GI50 in the assay on MDA-N, in the assay on COLO 205, with U-251, in the assay with MDA-MB-231, with MDA-MB-435 and in the assay on M14 was > 100 µM (inactive) each time. For the same molecule, the GI50 in the assay on SR, with 786-0, in the assay on UO-31, in the assay on SF-268, in the assay with HL-60 and in the assay on HCT-116 was > 100 µM (inactive) each time. Besides, the GI50 in the assay with SF-295, in the assay with SK-MEL-2, in the assay with PC-3, with IGROV-1 and in the assay on UACC-257 was > 100 µM (inactive) each time.
Regarding `Cc1cc(S(=O)(=O)Nc2nc3ccsc3c(=O)n2N)c(S)cc1Cl`, the GI50 in the assay on MDA-N was > 100 µM (inactive); in the assay with COLO 205 it was > 100 µM (inactive); in the assay on U-251, 57.1 µM (inactive); in the assay with MDA-MB-231, 70.1 µM (inactive); in the assay with MDA-MB-435 it was 83.8 µM (inactive); with M14 it was 68.7 µM (inactive). Also, the GI50 with 786-0 was > 100 µM (inactive); in the assay with SF-268, 42.2 µM (inactive); in the assay on OVCAR-4, 68.1 µM (inactive); in the assay with HL-60, > 100 µM (inactive); in the assay with HCC 2998, > 100 µM (inactive); with HCT-116, 94.8 µM (inactive). The GI50 was > 100 µM (inactive) in the assay on SK-MEL-28; 31.3 µM (inactive) in the assay with SF-295; 76.2 µM (inactive) in the assay on SK-MEL-2; > 100 µM (inactive) in the assay with PC-3; > 100 µM (inactive) with IGROV-1; > 100 µM (inactive) with UACC-257.
For the molecule `NC1OC(COC(=O)c2ccccc2)C(O)C(OC(=O)c2ccccc2)C1OC(=O)c1ccccc1` (configuration not stated), the GI50 was 22.3 µM (inactive) in the assay with MDA-N; 22.1 µM (inactive) with COLO 205; 17.7 µM (inactive) in the assay on U-251; 18.7 µM (inactive) with MDA-MB-231; 21.7 µM (inactive) in the assay on MDA-MB-435; 24.3 µM (inactive) in the assay with M14. Also, the GI50 in the assay on SR was > 10 µM (inactive); in the assay on 786-0, 15.5 µM (inactive); with UO-31, 33.5 µM (inactive); in the assay on SF-268, 22.6 µM (inactive); in the assay with OVCAR-4, 35.5 µM (inactive); in the assay with HCT-116, 18.8 µM (inactive). Further, the GI50 in the assay on SK-MEL-28 is 20.2 µM (inactive); in the assay on SF-295, 17.2 µM (inactive); in the assay with SK-MEL-2 it was 29.9 µM (inactive); with PC-3 it was 19.7 µM (inactive); in the assay on IGROV-1 it was 16.9 µM (inactive); with UACC-257 it was 18.1 µM (inactive).
In the case of `CC1(C)[C@@H]2C[C@H]1C(Cc1cccc(C[C@H]3c4cc(-c5ccccn5)ncc4[C@H]4C[C@@H]3C4(C)C)c1)c1cc(-c3ccccn3)ncc12` (some centres not stated), the GI50 in the assay on MDA-N is 0.729 µM (active); in the assay with COLO 205, 0.452 µM (active); in the assay with U-251 it was 0.514 µM (active); in the assay with MDA-MB-231, 22.6 µM (inactive); in the assay on MDA-MB-435 it was 0.548 µM (active); with M14, 0.485 µM (active). For the same molecule, the GI50 is 0.32 µM (active) in the assay with 786-0; 0.785 µM (active) in the assay with UO-31; 0.513 µM (active) with SF-268; 4.58 µM (inactive) in the assay on OVCAR-4; 0.295 µM (active) in the assay on HL-60; 0.923 µM (active) with HCC 2998. Moreover, the GI50 is 0.428 µM (active) with HCT-116; 4.93 µM (inactive) in the assay on SK-MEL-28; 0.92 µM (active) with SF-295; 12.9 µM (inactive) with SK-MEL-2; 0.875 µM (active) in the assay on PC-3; 0.452 µM (active) in the assay on IGROV-1. Moreover, in the assay with UACC-257, the GI50 was 1.48 µM (inactive).
